How the values were obtained:
[1] = tested on: ABUTH; experiment: Pre-emergence herbicidal action against ABUTH; assay type: in vivo, Abutilon theophrasti; conditions: Abutilon theophrasti, 504 h; for pest or weed control at 80 g/ha: scored visually after 3 weeks vs untreated controls (100% = plants have died, 0% = like control plants)
Summary of the method: (§1)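 Herbicidal effect was assessed 3 weeks after treatment by visual comparison with untreated controls, 100% denoting dead plants. Aqueous WP or EC preparations had been applied at 600 to 800 l/ha with 0.2% wetting agent to the soil covering freshly sown seeds.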

[2] = tested on: ALOMY; experiment: Pre-emergence herbicidal action against ALOMY; assay type: in vivo, Alopecurus myosuroides; conditions: Alopecurus myosuroides, 504 h, pre-emergence; for pest or weed control at 80 g/ha: scored visually after 3 weeks vs untreated controls (100% = plants have died, 0% = like control plants); for pest or weed control at 20 g/ha: scored visually after 3 weeks, 100% = plants have died, 0% = like control plants
Summary of the method: as §1

[3] = tested on: AMARE; experiment: Pre-emergence herbicidal action against AMARE; assay type: in vivo, Amaranthus retroflexus; conditions: Amaranthus retroflexus, 504 h, scored visually after 3 weeks vs untreated controls, 100% = plants have died, 0% = like control plants
Summary of the method: as §1

[4] = tested on: AVEFA; experiment: Pre-emergence herbicidal action against AVEFA; assay type: in vivo, Avena fatua; conditions: Avena fatua, 504 h, pre-emergence
Summary of the method: as §1

[5] = tested on: ECHCG; experiment: Pre-emergence herbicidal action against ECHCG; assay type: in vivo, Echinochloa crus-galli; conditions: Echinochloa crus-galli, 504 h
Summary of the method: as §1

[6] = tested on: LOLRI; experiment: Pre-emergence herbicidal action against LOLRI; assay type: in vivo, Lolium rigidum; conditions: Lolium rigidum, 504 h, 80 g/ha
Summary of the method: as §1

[7] = tested on: MATIN; experiment: Pre-emergence herbicidal action against MATIN; assay type: in vivo, Matricaria inodora; conditions: Tripleurospermum inodorum, 504 h; for pest or weed control at 20 g/ha: dosage 20 g/ha; for pest or weed control at 80 g/ha: dosage 80 g/ha
Summary of the method: as §1

[8] = tested on: POLCO; experiment: Pre-emergence herbicidal action against POLCO; assay type: in vivo, Polygonum convolvulus; conditions: Fallopia convolvulus, 504 h, dosage 80 g/ha
Summary of the method: as §1

[9] = tested on: SETVI; experiment: Pre-emergence herbicidal action against SETVI; assay type: in vivo, Setaria viridis; conditions: Setaria viridis, 504 h, dosage 80 g/ha
Summary of the method: as §1

[10] = tested on: VIOTR; experiment: Pre-emergence herbicidal action against VIOTR; assay type: in vivo, Viola tricolor; conditions: Viola tricolor, 504 h; for pest or weed control at 80 g/ha: dosage 80 g/ha
Summary of the method: as §1

[11] = tested on: ABUTH; experiment: Post-emergence herbicidal action against ABUTH; assay type: in vivo, Abutilon theophrasti; conditions: Abutilon theophrasti, 504 h, visual assessment about 3 weeks after treatment vs untreated controls; for pest or weed control at 20 g/ha: dosage 20 g/ha
Summary of the method: (§2)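 Post-emergence greenhouse test; one-leaf stage, 2–3 wk post-sowing, sandy loam. Foliar spray of WP/EC in water, 600–800 l/ha, +0.2% wetting agent. Visual % action at ~3 wk vs untreated (100% = plants dead).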

[12] = tested on: ALOMY; experiment: Post-emergence herbicidal action against ALOMY; assay type: in vivo, Alopecurus myosuroides; conditions: Alopecurus myosuroides, 504 h, visual assessment about 3 weeks after treatment vs untreated controls; for pest or weed control at 5 g/ha: dosage 5 g/ha; for pest or weed control at 20 g/ha: dosage 20 g/ha
Summary of the method: as §2

[13] = tested on: AMARE; experiment: Post-emergence herbicidal action against AMARE; assay type: in vivo, Amaranthus retroflexus; conditions: Amaranthus retroflexus, 504 h, 20 g/ha, visual assessment about 3 weeks after treatment, 100% = plants have died, 0% = like control plants
Summary of the method: as §2

[14] = tested on: SETVI; experiment: Post-emergence herbicidal action against SETVI; assay type: in vivo, Setaria viridis; conditions: Setaria viridis, 504 h; for pest or weed control at 20 g/ha: dosage 20 g/ha
Summary of the method: as §2

[15] = tested on: VIOTR; experiment: Post-emergence herbicidal action against VIOTR; assay type: in vivo, Viola tricolor; conditions: Viola tricolor, 504 h
Summary of the method: as §2

[16] = tested on: VERPE; experiment: Pre-emergence herbicidal action against VERPE; assay type: in vivo, Veronica persica; conditions: Veronica persica, 504 h, dosage 80 g/ha
Summary of the method: as §1

[17] = tested on: ECHCG; experiment: Post-emergence herbicidal action against ECHCG; assay type: in vivo, Echinochloa crus-galli; conditions: Echinochloa crus-galli, 504 h, dosage 20 g/ha
Summary of the method: as §2

[18] = tested on: MATIN; experiment: Post-emergence herbicidal action against MATIN; assay type: in vivo, Matricaria inodora; conditions: Tripleurospermum inodorum, 504 h, dosage 20 g/ha
Summary of the method: as §2

[19] = tested on: PHBPU; experiment: Post-emergence herbicidal action against PHBPU; assay type: in vivo, Pharbitis purpurea; conditions: Ipomoea purpurea, 504 h
Summary of the method: as §2

[20] = tested on: VERPE; experiment: Post-emergence herbicidal action against VERPE; assay type: in vivo, Veronica persica; conditions: Veronica persica, 504 h, 20 g/ha
Summary of the method: as §2

| SMILES | pest or weed control at 80 g/ha [1] | pest or weed control at 80 g/ha [2] | pest or weed control at 20 g/ha [2] | pest or weed control at 20 g/ha [3] | pest or weed control at 80 g/ha [3] | pest or weed control at 80 g/ha [4] | pest or weed control at 80 g/ha [5] | pest or weed control at 80 g/ha [6] | pest or weed control at 20 g/ha [7] | pest or weed control at 80 g/ha [7] | pest or weed control at 80 g/ha [8] | pest or weed control at 80 g/ha [9] | pest or weed control at 80 g/ha [10] | pest or weed control at 20 g/ha [11] | pest or weed control at 5 g/ha [12] | pest or weed control at 20 g/ha [12] | pest or weed control at 20 g/ha [13] | pest or weed control at 20 g/ha [14] | pest or weed control at 20 g/ha [15] | further results |
| --- | --- | --- | --- | --- | --- | --- | --- | --- | --- | --- | --- | --- | --- | --- | --- | --- | --- | --- | --- | --- |
| CCn1nnnc1NC(=O)c1ccc(Br)c(C(=O)NC2CC2)c1Br [Example 2-343] | 100% | 90% | 80% | 100% | 100% | 100% | 90% | 90% | 80% | 100% | 90% | 100% | 100% | 80% | 80% | 100% | 100% | 90% | 90% | pest or weed control at 20 g/ha ([10]; dosage 20 g/ha): 90%; pest or weed control at 5 g/ha ([14]; dosage 5 g/ha): 90% |
| CCCNC(=O)c1c(C(F)F)ccc(C(=O)Nc2nnnn2C)c1C [Example 1-345] | 100% | 90% | 80% | 100% | 100% | 90% | 100% | 80% | 100% | 100% | 90% | 100% | 100% | 90% | 80% | 90% | 100% | 90% | 100% | pest or weed control at 20 g/ha ([1]; dosage 20 g/ha, scored visually after 3 weeks vs untreated controls, 100% = plants have died, 0% = like control plants, read-out: Pre-emergence action against ABUTH (herbicidal activity in percent)): 100%; pest or weed control at 20 g/ha ([4]; 20 g/ha, scored visually after 3 weeks, 100% = plants have died, 0% = like control plants): 80%; pest or weed control at 20 g/ha ([5]; 20 g/ha): 90%; pest or weed control at 80 g/ha [16]: 80%; pest or weed control at 5 g/ha ([11]; dosage 5 g/ha): 80%; pest or weed control at 20 g/ha [17]: 90%; pest or weed control at 20 g/ha [18]: 80%; pest or weed control at 5 g/ha ([19]; dosage 5 g/ha): 80%; pest or weed control at 20 g/ha ([19]; dosage 20 g/ha): 80%; pest or weed control at 20 g/ha [20]: 90%; pest or weed control at 5 g/ha ([15]; 5 g/ha): 90% |

From patent US12655116B2, “Substituted isophthalic acid diamides” (Bayer Aktiengesellschaft, priority 2020, dated 2026)
